Measurements as given in the NIST ThermoML archive (doi:10.1016/j.fluid.2009.12.002).
Numbers after ± are expanded uncertainties.

Assays:
[1] = for mass density: Vibrating tube method; for vapor or sublimation pressure: isothermal bubble-point pressure
[2] = xn = mol fraction of the nth substance listed; conditions: Liquid, Vibrating tube method

For Cc1ccccc1C [1,2-dimethylbenzene], the mass density ([1]; 333.15 K, Gas) was 0.2087 ± 0.1 kg/m3, the mass density ([1]; 333.15 K, Liquid) was 845.839 ± 0.23 kg/m3 and the “vapor or sublimation pressure” value ([1]; 333.15 K, Liquid) was 5.45 ± 0.02 kPa. The mass density ([1]; 343.15 K, Gas) was 0.3149 ± 0.1 kg/m3, the mass density ([1]; 343.15 K, Liquid) was 837.399 ± 0.23 kg/m3 and the “vapor or sublimation pressure” value ([1]; 343.15 K, Liquid) was 8.47 ± 0.03 kPa. For the same molecule, the mass density ([1]; 353.15 K, Gas) was 0.4587 ± 0.1 kg/m3, the mass density ([1]; 353.15 K, Liquid) was 828.528 ± 0.24 kg/m3 and the “vapor or sublimation pressure” value ([1]; 353.15 K, Liquid) was 12.71 ± 0.03 kPa.
Cc1ccccc1C [1,2-dimethylbenzene] + CNC=O gave a mass density ([2]; 333.15 K, x1 = 1) of 845.839 ± 0.23 kg/m3, a mass density ([2]; 343.15 K, x1 = 1) of 837.399 ± 0.23 kg/m3 and a mass density ([2]; 353.15 K, x1 = 1) of 828.528 ± 0.24 kg/m3.
For Cc1cccc(C)c1 [1,3-dimethylbenzene], the mass density ([1]; 333.15 K, Gas) was 0.2519 ± 0.1 kg/m3, the mass density ([1]; 333.15 K, Liquid) was 829.305 ± 0.24 kg/m3 and the “vapor or sublimation pressure” value ([1]; 333.15 K, Liquid) was 6.58 ± 0.03 kPa. For the same molecule, the mass density ([1]; 343.15 K, Gas) was 0.3779 ± 0.1 kg/m3, the mass density ([1]; 343.15 K, Liquid) was 820.443 ± 0.24 kg/m3 and the “vapor or sublimation pressure” value ([1]; 343.15 K, Liquid) was 10.17 ± 0.03 kPa. The mass density ([1]; 353.15 K, Gas) was 0.5457 ± 0.1 kg/m3, the mass density ([1]; 353.15 K, Liquid) was 811.602 ± 0.24 kg/m3 and the “vapor or sublimation pressure” value ([1]; 353.15 K, Liquid) was 15.12 ± 0.04 kPa.
In the case of Cc1cccc(C)c1 [1,3-dimethylbenzene] + CNC=O, the mass density ([2]; 333.15 K, x1 = 1) is reported as 829.305 ± 0.24 kg/m3, the mass density ([2]; 343.15 K, x1 = 1) is reported as 820.443 ± 0.24 kg/m3 and the mass density ([2]; 353.15 K, x1 = 1) is reported as 811.602 ± 0.24 kg/m3.
In the case of Cc1ccc(C)cc1 [1,4-dimethylbenzene], the mass density ([1]; 333.15 K, Gas) is reported as 0.262 ± 0.1 kg/m3, the mass density ([1]; 333.15 K, Liquid) is reported as 825.539 ± 0.24 kg/m3 and the “vapor or sublimation pressure” value ([1]; 333.15 K, Liquid) is reported as 6.85 ± 0.03 kPa. For the same molecule, the mass density ([1]; 343.15 K, Gas) was 0.3903 ± 0.1 kg/m3, the mass density ([1]; 343.15 K, Liquid) was 816.664 ± 0.24 kg/m3 and the “vapor or sublimation pressure” value ([1]; 343.15 K, Liquid) was 10.5 ± 0.03 kPa. For the same molecule, the mass density ([1]; 353.15 K, Gas) was 0.5636 ± 0.1 kg/m3, the mass density ([1]; 353.15 K, Liquid) was 807.649 ± 0.24 kg/m3 and the “vapor or sublimation pressure” value ([1]; 353.15 K, Liquid) was 15.61 ± 0.04 kPa.
Work on Cc1ccc(C)cc1 [1,4-dimethylbenzene] + CNC=O yielded a mass density ([2]; 333.15 K, x1 = 1) of 825.539 ± 0.24 kg/m3, a mass density ([2]; 343.15 K, x1 = 1) of 816.664 ± 0.24 kg/m3 and a mass density ([2]; 353.15 K, x1 = 1) of 807.649 ± 0.24 kg/m3.
In the case of CNC=O [N-methylformamide], the mass density ([1]; 333.15 K, Liquid) is reported as 967.461 ± 0.23 kg/m3, the “vapor or sublimation pressure” value ([1]; 333.15 K, Liquid) is reported as 0.37 ± 0.02 kPa and the mass density ([1]; 343.15 K, Liquid) is reported as 958.765 ± 0.23 kg/m3. For the same molecule, the “vapor or sublimation pressure” value ([1]; 343.15 K, Liquid) was 0.67 ± 0.02 kPa, the mass density ([1]; 353.15 K, Liquid) was 949.98 ± 0.23 kg/m3 and the “vapor or sublimation pressure” value ([1]; 353.15 K, Liquid) was 1.15 ± 0.02 kPa.
CNC=O [N-methylformamide] + Cc1ccc(C)cc1 showed a mass density ([2]; 333.15 K, x2 = 0) of 967.461 ± 0.23 kg/m3, a mass density ([2]; 343.15 K, x2 = 0) of 958.765 ± 0.23 kg/m3 and a mass density ([2]; 353.15 K, x2 = 0) of 949.98 ± 0.23 kg/m3.
CNC=O [N-methylformamide] + Cc1cccc(C)c1 gave a mass density ([2]; 333.15 K, x2 = 0) of 967.461 ± 0.23 kg/m3, a mass density ([2]; 343.15 K, x2 = 0) of 958.765 ± 0.23 kg/m3 and a mass density ([2]; 353.15 K, x2 = 0) of 949.98 ± 0.23 kg/m3.
In the case of CNC=O [N-methylformamide] + Cc1ccccc1C, the mass density ([2]; 333.15 K, x2 = 0) is reported as 967.461 ± 0.23 kg/m3, the mass density ([2]; 343.15 K, x2 = 0) is reported as 958.765 ± 0.23 kg/m3 and the mass density ([2]; 353.15 K, x2 = 0) is reported as 949.98 ± 0.23 kg/m3.
